In test [1] the test system is IL-10. As to the kind of experiment: IL-10 mRNA expression in LPS-treated hMADS derived adipocytes (real-time PCR). The test is classed as cell-based, human. The note with it: butyric acid 10^−4M, hexanoic acid 10^−5M, 24 h then 5 ug/mL LPS 24 h, relative to LPS without short chain fatty acids, FIG. 10.
Experimental: In the experiment, adipose tissue-derived stem cells were pre-treated with butyric acid, caproic acid, and a combination thereof after which lipopolysaccharide (LPS) was added to induce (low-grade) inflammation. […] Pooled human multipotent adipose tissue-derived stem cells (hMADS), were differentiated into the adipogenic lineage, creating a human white adipocyte model. hMADS cells were derived from male human donors with a large range in BMI (20-40 kg/m2) and glucometabolic status, and age between 35 and 70 years of age. Cells were seeded at a density of 2,000 cells/cm2 and kept in proliferation medium containing Dulbecco's modified Eagle's medium (DMEM), Ham's F-12 Nutrient Mixture (Gibco, Bleiswijk, Netherlands), 10% fetal bovine serum (Bodinco BV, Alkmaar, NL, Netherlands), 50 U/ml penicillin (Gibco), and 50 μg/ml of streptomycin (Gibco)]. At 70-80% confluence, 250 μmol/L IBMX (Sigma, St. Louis, MI, USA) and 5 μmol/L rosiglitazone (Enzo Life Sciences, Raamsdonksveer, Netherlands) were added to induce adipogenic differentiation. Experiments were carried out between days 12 and 14 of the differentiation. To study the effect of butyric acid (10^-4M) and hexanoic acid (10^-5M) on the expression of the anti-inflammatory cytokine IL-10, hMADS derived adipocytes were incubated with butyric acid, hexanoic acid or the combination thereof. […]
Test [2] relates to IL-6. Briefly: IL-6 production by LPS-treated hMADS adipocytes (ECL immunoassay). The test is classed as cell-based, human. The note with it: fatty acid 10-4 to 10-9 mol 24 h then 5 ug/mL LPS 24 h, versus LPS only, all tested concentrations, FIG. 8/9.
Experimental: An experiment was carried out to ascertain the extent to which butyric acid and caproic acid effect the production of the proinflammatory cytokine IL-6 in an inflammatory condition.
Pooled human multipotent adipose tissue-derived stem cells (hMADS), were differentiated into the adipogenic lineage, creating a human white adipocyte model. hMADS cells were derived from male human donors with a large range in BMI (20-40 kg/m2) and glucometabolic status, and age between 35 and 70 years of age. Cells were seeded at a density of 2,000 cells/cm2 and kept in a proliferation medium containing Dulbecco's modified Eagle's medium (DMEM), Ham's F-12 Nutrient Mixture (Gibco, Bleiswijk, Netherlands), 10% fetal bovine serum (Bodinco BV, Alkmaar, NL, Netherlands), 50 U/ml penicillin (Gibco), and 50 μg/ml of streptomycin (Gibco)].
At 70-80% confluence, 250 μmol/L IBMX (Sigma, St. Louis, MI, USA) and 5 μmol/L rosiglitazone (Enzo Life Sciences, Raamsdonksveer, Netherlands) were added to induce adipogenic differentiation. Experiments were carried out between days 12 and 14 of the differentiation. […]
IL-6 cytokine levels in the culture supernatant were evaluated using a electrochemiluminescence (ECL) immunoassay (MSD; Rockville, Maryland) according to the manufacturers protocol. […]

With `CCCC(=O)O` [butyric acid], the “expression of IL-10 (mRNA)” value in test [1] was “small increase”. Besides, the “concentration of IL-6” value in test [2] was “lower”.

For `CCCCCC(=O)O` [hexanoic acid], the “expression of IL-10 (mRNA)” value in test [1] is reported as “small increase”. Further, in test [2], the “concentration of IL-6” value is “lower”.

Source of the values: patent US20260124168A1, “OIL COMPOSITION COMPRISING CAPROIC ACID RESIDUES, UNSATURATED FATTY ACID RESIDUES AND SATURATED FATTY ACID RESIDUES” (AAK AB (PUBL), priority 2022, published 2026).
